Test results taken from article PMC3676450 (Journal of medicinal chemistry, 2013).

Tests used:
hM5 mAcChR = molecular target: T1, hM5 mAcChR (Homo sapiens, UniProt P08912); test: [3H]NMS binding to membranes from CHO-K1 cells expressing hM5
T1 sequence (P08912 1-532): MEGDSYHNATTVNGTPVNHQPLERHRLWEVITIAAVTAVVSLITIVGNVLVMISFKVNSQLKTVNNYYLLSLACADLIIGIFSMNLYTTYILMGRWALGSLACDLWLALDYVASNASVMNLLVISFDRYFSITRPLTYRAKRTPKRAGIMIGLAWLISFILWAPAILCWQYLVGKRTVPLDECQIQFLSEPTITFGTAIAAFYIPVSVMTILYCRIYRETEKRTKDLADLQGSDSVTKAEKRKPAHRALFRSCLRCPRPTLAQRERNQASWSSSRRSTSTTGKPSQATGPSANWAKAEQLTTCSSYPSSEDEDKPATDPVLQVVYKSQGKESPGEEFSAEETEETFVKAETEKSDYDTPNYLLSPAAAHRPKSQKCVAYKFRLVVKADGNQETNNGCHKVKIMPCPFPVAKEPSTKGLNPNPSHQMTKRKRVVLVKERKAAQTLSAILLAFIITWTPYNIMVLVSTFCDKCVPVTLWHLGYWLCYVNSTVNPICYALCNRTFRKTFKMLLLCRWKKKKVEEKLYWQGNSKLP

hM1 mAcChR = molecular target: T2, hM1 mAcChR (Homo sapiens, UniProt P11229); test: [3H]N-methylscopolamine; type: binding
T2 sequence (P11229 1-460): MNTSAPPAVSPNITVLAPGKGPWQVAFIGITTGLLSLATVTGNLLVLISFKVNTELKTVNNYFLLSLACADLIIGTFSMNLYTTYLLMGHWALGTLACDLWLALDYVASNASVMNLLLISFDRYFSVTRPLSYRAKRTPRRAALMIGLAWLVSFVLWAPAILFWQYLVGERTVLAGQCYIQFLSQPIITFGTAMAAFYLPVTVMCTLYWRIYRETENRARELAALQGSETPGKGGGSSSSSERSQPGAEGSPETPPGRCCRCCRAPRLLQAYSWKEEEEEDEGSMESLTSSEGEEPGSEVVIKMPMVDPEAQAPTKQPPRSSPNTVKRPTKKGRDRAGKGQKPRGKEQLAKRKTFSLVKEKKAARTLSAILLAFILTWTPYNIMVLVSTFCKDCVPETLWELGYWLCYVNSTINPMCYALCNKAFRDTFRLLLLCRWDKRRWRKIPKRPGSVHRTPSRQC

Row | Compound | binding affinity at M1 receptor (in words) (hM1 mAcChR) | binding affinity at M5 receptor (in words) (hM5 mAcChR) | M1/M5 (hM5 mAcChR) | M2/M5 (hM5 mAcChR) | M3/M5 (hM5 mAcChR) | M4/M5 (hM5 mAcChR) | also measured
1 | CCN1CCC(c2ccccc2)=C(C(=O)OCCc2cccc(OC)c2)C1 [Compound 18] | – | – | – | – | – | – | increase in binding affinity at M5 relative to compound 8 (hM5 mAcChR): 3 fold; increase in binding affinity at M5 relative to compound 17 (hM5 mAcChR): 8 fold
2 | CCN1CCC(c2ccccc2)=C(C(=O)OCCc2ccc(S(C)(=O)=O)cc2)C1 [Compound 27] | little affinity | little affinity | – | – | – | – | –
3 | CCN1CCC(c2ccccc2)=C(C(=O)OCCc2ccc3c(c2)CCO3)C1 [Compound 28] | – | – | 1,390 (6.0) | >100,000 (>435) | 31,100 (135) | 10,500 (46) | –
4 | COc1ccc(CCOC(=O)C2=C(c3ccccc3)CCN(Cc3ccc(OC)cc3)C2)cc1 [Compound 40] | eliminated affinity | eliminated affinity | – | – | – | – | –
5 | COc1ccc(CCOC(=O)C2=C(c3ccccc3)CCN(C)C2)cc1 [Compound 42] | – | – | – | – | – | – | increase in binding affinity at M1 relative to compound 8 (hM1 mAcChR): 8 fold; increase in binding affinity at M5 relative to compound 8 (hM5 mAcChR): 14 fold
6 | CCCN1CCC(c2ccccc2)=C(C(=O)OCCc2ccc(OC)cc2)C1 [Compound 43] | eliminated affinity | eliminated affinity | – | – | – | – | –
7 | CCCCN1CCC(c2ccccc2)=C(C(=O)OCCc2ccc(OC)cc2)C1 [Compound 44] | eliminated affinity | eliminated affinity | – | – | – | – | –
8 | CN1CCC(c2ccccc2)=C(C(=O)OCCc2ccc3c(c2)CCO3)C1 [Compound 45] | – | – | 290 (4.8) | 1,170 (20) | 2,840 (47) | 1,890 (32) | –
9 | CN1CCC(c2ccccc2)=C(C(=O)OCCc2cccc3ccccc23)C1 [Compound 57] | – | – | 24,400 (4.8) | >100,000 (>20) | >100,000 (>20) | >100,000 (>20) | –
10 | CN1CCC(c2ccccc2F)=C(C(=O)OCCc2ccc3c(c2)CCO3)C1 [Compound 63] | – | – | 5,270 (7.1) | 540 (0.7) | 4,890 (6.6) | 5,740 (7.8) | –
11 | COc1ccc(CCOC(=O)C2=C(c3cccc(F)c3)CCN(C)C2)cc1OC [Compound 66] | – | – | – | >100,000 (>30) | >100,000 (>30) | >100,000 (>30) | –
12 | CN1CC=C(c2ccccc2C(=O)OCCc2ccc3c(c2)CCO3)CC1 [Compound 89] | complete loss of binding affinity | complete loss of binding affinity | – | – | – | – | –
